Among the data in patent US20220030867A1 (priority 2018, published 2022) are pest or weed control, inhibition of growth and melting point values, retold here.

One data set relates to Fusarium culmorum. Description: whole plant or invertebrate. In kind it is in vivo, Fusarium culmorum on wheat spikelets cv. Monsun. Particulars: in Triticum aestivum, read-out: control of Fusarium culmorum.
Data set [1] concerns Magnaporthe grisea (Pyricularia oryzae). Nature of the data set: microbe, parasite or virus in culture. The class given is cell-based. The settings on record: read-out: control of Magnaporthe grisea.
Data set [2] shares this test system. Description: whole plant or invertebrate. In kind it is in vivo, Magnaporthe grisea on rice leaf segments cv. Ballila. Particulars: foliar, read-out: control of Magnaporthe grisea.
A further data set concerns Sclerotinia sclerotiorum. Description: Sclerotinia sclerotiorum / liquid culture (cottony rot). The class given is cell-based. The settings on record: growth inhibition photometrically 3-4 days after application, vs untreated control. The protocol: Sclerotinia sclerotiorum/Liquid Culture (Cottony Rot)
Mycelia fragments of a newly grown liquid culture of the fungus are directly mixed into nutrient broth (Vogels broth). After placing a (DMSO) solution of test compound into a microtiter plate (96-well format) the nutrient broth containing the fungal material is added. The test plates are incubated at 24° C. and the inhibition of growth is determined photometrically 3-4 days after application.

Data set [3] deals with Botryotinia fuckeliana (Botrytis cinerea). Nature of the data set: Botryotinia fuckeliana (Botrytis cinerea) / liquid culture (gray mould). Particulars: growth inhibition photometrically 3-4 days after application, vs untreated control. The class given is cell-based. The protocol:
Botryotinia fuckeliana (Botrytis cinerea)/Liquid Culture (Gray Mould)
Conidia of the fungus from cryogenic storage are directly mixed into nutrient broth (Vogels broth). After placing a (DMSO) solution of test compound into a microtiter plate (96-well format), the nutrient broth containing the fungal spores is added. The test plates are incubated at 24° C. and the inhibition of growth is determined photometrically 3-4 days after application.

For data set [4], the system named is Glomerella lagenarium (Colletotrichum lagenarium). Description: Glomerella lagenarium (Colletotrichum lagenarium) / liquid culture (anthracnose). In kind it is cell-based. Particulars: Colletotrichum orbiculare, growth inhibition photometrically 3-4 days after application, vs untreated control. The protocol:
Conidia of the fungus from cryogenic storage are directly mixed into nutrient broth (PDB potato dextrose broth). After placing a (DMSO) solution of test compound into a microtiter plate (96-well format), the nutrient broth containing the fungal spores is added. The test plates are incubated at 24° C. and the inhibition of growth is measured photometrically 3-4 days after application.

As to `CC(C)C[C@](C)(Cc1ccccc1)C(=O)Nc1cnc2c(F)cccc2c1` [Compound F-19, (2R)-2-benzyl-N-(8-fluoro-3-quinolyl)-2,4-dimethyl-pentanamide], the pest or weed control at 200 ppm in the data set on Fusarium culmorum was ≥ 80%. For the same compound, the inhibition of growth at 200 ppm in data set [1] is ≥ 80%.
With `C=C(C)C[C@](C)(Cc1ccccc1)C(=O)Nc1cnc2c(F)cccc2c1` [Compound F-22, (2R)-2-benzyl-N-(8-fluoro-3-quinolyl)-2,4-dimethyl-pent-4-enamide], the inhibition of growth at 200 ppm in data set [1] is ≥ 80%.
In general, melting point refers to the temperature of the solid-liquid transition. As to `C#CCC(C)(Cc1ccccc1)C(=O)Nc1cnc2c(F)cccc2c1` (stereo not shown) [Compound E-26, 2-benzyl-N-(8-fluoro-3-quinolyl)-2-methyl-pent-4-ynamide], the melting point fell in the range of 189 to 191 °C. Besides, the pest or weed control at 200 ppm in data set [2] is ≥ 80%.
The compound `Cc1c(NC(=O)C(C)(Cc2ccccc2)CC(C)C)cnc2c(F)cccc12` (stereo not shown) [Compound E-84, 2-benzyl-N-(8-fluoro-4-methyl-3-quinolyl)-2,4-dimethyl-pentanamide] had a melting point of 73 to 79 °C. Further, the pest or weed control at 200 ppm in the data set on Fusarium culmorum was ≥ 80%. For the same compound, in data set [1], the inhibition of growth at 200 ppm is ≥ 80%. Further, the inhibition of growth at 20 ppm with Sclerotinia sclerotiorum was ≥ 80%.
For the compound `CC#CCC(Cc1ccccc1)C(=O)Nc1cnc2c(F)cccc2c1` (stereo not shown) [Compound E-29, 2-benzyl-N-(8-fluoro-3-quinolyl)hex-4-ynamide], the melting point is 218 to 220 °C. Also, the pest or weed control at 200 ppm in data set [2] is ≥ 80%.
With `C#CCC(C)(Cc1ccccc1)C(=O)Nc1cc2cccc(F)c2nc1C` (stereo not shown) [Compound E-2, 2-benzyl-N-(8-fluoro-2-methyl-3-quinolyl)-2-methyl-pent-4-ynamide], the pest or weed control at 200 ppm (with Fusarium culmorum; in data set [2]) was ≥ 80% each time. Further, in data set [1], the inhibition of growth at 200 ppm was ≥ 80%.
As to `Cc1nc2c(F)cccc2cc1NC(=O)[C@@](C)(Cc1cccc(F)c1)CC(F)(F)F` [Compound F-31, (2S)-4,4,4-trifluoro-N-(8-fluoro-2-methyl-3-quinolyl)-2-[(3-fluorophenyl)methyl]-2-methyl-butanamide], the inhibition of growth at 200 ppm in data set [3] and in data set [4] was ≥ 80% each time. Moreover, the pest or weed control at 200 ppm (in the data set with Fusarium culmorum; in data set [2]) was ≥ 80% throughout. In the data set with Sclerotinia sclerotiorum, the inhibition of growth at 20 ppm is ≥ 80%.
In the case of `Cc1c(NC(=O)C(Cc2ccccc2)CC(F)(F)F)cnc2c(F)cccc12` (stereo not shown) [Compound E-45, 2-benzyl-4,4,4-trifluoro-N-(8-fluoro-4-methyl-3-quinolyl)-butanamide], the melting point was 165 to 167 °C. In the data set with Fusarium culmorum, the pest or weed control at 200 ppm was ≥ 80%. Moreover, the pest or weed control at 200 ppm in data set [2] is ≥ 80%.
For the compound `Cc1c(NC(=O)[C@@](C)(Cc2ccccc2)CC(C)C)cnc2c(F)cccc12` [Compound F-4, (2R)-2-benzyl-N-(8-fluoro-4-methyl-3-quinolyl)-2,4-dimethyl-pentanamide], the pest or weed control at 200 ppm (in the data set with Fusarium culmorum; in data set [2]) was ≥ 80% throughout. Besides, the inhibition of growth at 200 ppm in data set [1] is ≥ 80%. For the same compound, the inhibition of growth at 20 ppm in the data set with Sclerotinia sclerotiorum is ≥ 80%.
In the case of `C=CCC(C)(Cc1ccccc1)C(=O)Nc1cnc2c(F)cccc2c1` (stereo not shown) [Compound E-78, 2-benzyl-N-(8-fluoro-3-quinolyl)-2-methyl-pent-4-enamide], the melting point was 146 to 149 °C. Also, in the data set on Fusarium culmorum, the pest or weed control at 200 ppm is ≥ 80%. Further, the inhibition of growth at 200 ppm in data set [1] was ≥ 80%.
`C=C(Cl)CC(C)(Cc1ccccc1)C(=O)Nc1cnc2c(F)cccc2c1C` (stereo not shown) [Compound E-20, 2-benzyl-4-chloro-N-(8-fluoro-4-methyl-3-quinolyl)-2-methyl-pent-4-enamide]: the melting point is 124 to 126 °C. Also, the pest or weed control at 200 ppm in the data set with Fusarium culmorum is ≥ 80%. The pest or weed control at 200 ppm in data set [2] is ≥ 80%.
Take `C=C(C)CC(Cc1ccccc1)C(=O)Nc1cnc2c(F)cccc2c1` (stereo not shown) [Compound E-94, 2-benzyl-N-(8-fluoro-3-quinolyl)-4-methyl-pent-4-enamide]: the melting point lay within 170 to 172 °C. Further, the inhibition of growth at 200 ppm in data set [1] was ≥ 80%.
For `C#CCC(Cc1ccccc1)C(=O)Nc1cnc2c(F)cccc2c1C` (stereo not shown) [Compound E-95], in data set [1], the inhibition of growth at 200 ppm is ≥ 80%.
As for `Cc1nc2c(F)cccc2cc1NC(=O)C(C)(Cc1ccccc1)CC(C)C` (stereo not shown) [Compound E-86, 2-benzyl-N-(8-fluoro-2-methyl-3-quinolyl)-2,4-dimethyl-pentanamide], the pest or weed control at 200 ppm in the data set with Fusarium culmorum is ≥ 80%. Also, in data set [1], the inhibition of growth at 200 ppm was ≥ 80%. Moreover, in the data set on Sclerotinia sclerotiorum, the inhibition of growth at 20 ppm is ≥ 80%.
Consider `Cc1c(NC(=O)C(C)(Cc2ccccc2)CC(F)(F)F)cnc2c(F)cccc12` (stereo not shown) [Compound E-50, 2-benzyl-4,4,4-trifluoro-N-(8-fluoro-4-methyl-3-quinolyl)-2-methyl-butanamide], for which the melting point lay within 106 to 109 °C. In addition, the pest or weed control at 200 ppm with Fusarium culmorum was ≥ 80%. Further, the pest or weed control at 200 ppm in data set [2] is ≥ 80%.
With `C#CCC(C)(Cc1ccccc1)C(=O)Nc1cnc2c(F)cccc2c1C` (stereo not shown) [Compound E-3, 2-benzyl-N-(8-fluoro-4-methyl-3-quinolyl)-2-methyl-pent-4-ynamide], the inhibition of growth at 200 ppm in data set [1] was ≥ 80%.
On to `CC(Cc1ccccc1)(CC1CC1)C(=O)Nc1cnc2c(F)cccc2c1` (stereo not shown) [Compound E-76, 2-benzyl-3-cyclopropyl-N-(8-fluoro-3-quinolyl)-2-methyl-propanamide], for which the melting point lay within 157 to 159 °C. In addition, the pest or weed control at 200 ppm in data set [2] was ≥ 80%.
Take `C=C(Cl)CC(C)(Cc1ccccc1)C(=O)Nc1cc2cccc(F)c2nc1C` (stereo not shown) [Compound E-21, 2-benzyl-4-chloro-N-(8-fluoro-2-methyl-3-quinolyl)-2-methyl-pent-4-enamide]: the melting point was in the range of 121 to 123 °C. Also, in the data set on Fusarium culmorum, the pest or weed control at 200 ppm is ≥ 80%. The pest or weed control at 200 ppm in data set [2] was ≥ 80%.
The compound `CCCCC(C)(Cc1ccccc1)C(=O)Nc1cnc2c(F)cccc2c1` (stereo not shown) [Compound E-27, 2-benzyl-N-(8-fluoro-3-quinolyl)-2-methyl-hexanamide] gave a melting point of 135 to 137 °C. For the same compound, the pest or weed control at 200 ppm in data set [2] is ≥ 80%.
In the same order, the values of `Cc1nc2c(Cl)cccc2cc1NC(=O)C(C)(Cc1ccccc1)CC(F)(F)F` (stereo not shown) [Compound E-17, 2-benzyl-N-(8-chloro-2-methyl-3-quinolyl)-4,4,4-trifluoro-2-methyl-butanamide] are 47 to 50 °C and ≥ 80%.
In the same order, the values of `CC#CCC(C)(Cc1ccccc1)C(=O)Nc1cnc2c(F)cccc2c1` (stereo not shown) [Compound E-30, 2-benzyl-N-(8-fluoro-3-quinolyl)-2-methyl-hex-4-ynamide] are 136 to 138 °C and ≥ 80%.
For `CC(C)CC(C)(Cc1ccccc1)C(=O)Nc1cnc2ccccc2c1` (stereo not shown) [Compound E-85, 2-benzyl-2,4-dimethyl-N-(3-quinolyl)pentanamide], the melting point lay in the range of 147 to 148 °C. Also, the inhibition of growth at 200 ppm in data set [1] is ≥ 80%.
For `C=C(Cl)C[C@@](C)(Cc1ccccc1)C(=O)Nc1cc2cccc(F)c2nc1C` [Compound F-43, (2R)-2-benzyl-4-chloro-N-(8-fluoro-2-methyl-3-quinolyl)-2-methyl-pent-4-enamide], the inhibition of growth at 200 ppm in data set [3] and in data set [4] was ≥ 80% throughout. Moreover, the pest or weed control at 200 ppm (in the data set on Fusarium culmorum; in data set [2]) was ≥ 80% in each case.
For the compound `C=C(C)C[C@@](C)(Cc1ccccc1)C(=O)Nc1cnc2c(F)cccc2c1` [Compound F-21, (2S)-2-benzyl-N-(8-fluoro-3-quinolyl)-2,4-dimethyl-pent-4-enamide], the pest or weed control at 200 ppm (in the data set on Fusarium culmorum; in data set [2]) was ≥ 80% each time. Besides, the inhibition of growth at 200 ppm in data set [1] was ≥ 80%. In addition, the inhibition of growth at 20 ppm with Sclerotinia sclerotiorum was ≥ 80%.
With `CC(C)C[C@@](C)(Cc1ccccc1)C(=O)Nc1cnc2c(F)cccc2c1` [Compound F-20, (2S)-2-benzyl-N-(8-fluoro-3-quinolyl)-2,4-dimethyl-pentanamide], the pest or weed control at 200 ppm in the data set with Fusarium culmorum is ≥ 80%. In data set [1], the inhibition of growth at 200 ppm was ≥ 80%. Besides, the inhibition of growth at 20 ppm with Sclerotinia sclerotiorum is ≥ 80%.
Compound `C=C(Cl)CC(Cc1ccccc1)C(=O)Nc1cnc2c(F)cccc2c1` (stereo not shown) [Compound E-6, 2-benzyl-4-chloro-N-(8-fluoro-3-quinolyl)-pent-4-enamide] showed a melting point of 166 to 168 °C. For the same compound, the inhibition of growth at 200 ppm in data set [1] is ≥ 80%. Besides, the pest or weed control at 200 ppm in data set [2] is ≥ 80%.
Regarding `C=C(Cl)CC(Cc1ccccc1)C(=O)Nc1cnc2c(F)cccc2c1C` (stereo not shown) [Compound E-5, 2-benzyl-4-chloro-N-(8-fluoro-4-methyl-3-quinolyl)pent-4-enamide], the melting point is 53 to 58 °C. In addition, the pest or weed control at 200 ppm with Fusarium culmorum is ≥ 80%. Moreover, the inhibition of growth at 200 ppm in data set [1] is ≥ 80%. For the same compound, in the data set with Sclerotinia sclerotiorum, the inhibition of growth at 20 ppm is ≥ 80%.
